Results on six molecules are retold here after US4873081A, “Percutaneous absorption preparation” (priority 1986, dated 1989).

Series [1] in a line: Absorption of the active ingredient from other bases or with other promoters. As to conditions: calcium thioglycolate as absorption promoter.
Series [2] in a line: in vivo. Also noted: species or system male Wistar rats. To be noted: rat, topical or ocular; for AUC(0-t) at 36 h: AUC (0-36 hours). From the text: In Table 1, the results obtained are shown. The calcium salts of the anti-inflammatory drugs in the ointment were absorbed to a much greater degree than the indomethacin (Rp. 1).
In series [3] the test system is carrageenan-induced paw edema. The series is described as follows: Carrageenan-induced edema in hindpaw of rat. To be noted: 0.14 g gel ointment on abdominal skin 6 h before carrageenan. Type of series: in vivo, male Wistar rats. The protocol:
(§1) Experimental carrageenan edema was induced in groups of six male Wistar rats weighing 150-160 g. […] The gel without the drug was similarly applied to the control group. The treated area was immediately covered by aluminum foil and adhesive tape. Six hours later, 1% carrageenan solution was injected subcutaneously into the sole of the right hindpaw. The volumes of both hindpaw were measured hourly using a plethysmometer and the edema volume was calculated from the difference between the injected and non-injected paws. FIG. 3 indicates the effect on the carrageenan-induced paw edema of these ointments applied topically.
A general note: Carrageenan injected into the paw causes an acute inflammation.

Series [4] can be described thus: Plasma concentration of indomethacin during multiple percutaneous dosing of ointment to rats. Type of series: in vivo, male Wistar rats. As to conditions: 0.14 g per 1.0×1.0 cm. The protocol:
The hair of the abdominal area of male Wistar rats weighing 250-300 g was removed in the same manner as described in Example 6. […] The rats were fixed in the Bollman cages for 24 hours. The ointment remained in contact with the skin for 24 hours, and then the unabsorbed ointment was wiped off. Subsequently, second and third applications of the ointment (0.14 g, 1.0×1.0 cm area) were made at different positions on the abdomen similar to the first application. The drug concentrations were determined by the same procedure as described in Example 6. FIG. 2 depicts the plasma indomethacin concentrations after the topical application of these ointments.

Series [5] relates to adjuvant arthritis induced with M. butyricum. The series is described as follows: Adjuvant arthritis induced with M. butyricum. To be noted: for Inhibition: adjuvant arthritis; for Inhibition / Foot volume: day 16, mean ± S.D. of 6 rats; for Foot volume: 0.14 g gel ointment every other day from day 11 to 15, *p <0.05 vs control. Type of series: in vivo, male Wistar rats. As for the experimental part:
as §1
M. butyricum (Difco Lab., USA) suspended in paraffin oil was injected into the sole of right hindpaw of male Wistar rats weighing 150-160 g. […] The edema volumes were calculated by measuring the volumes of both hindpaws on day 16, according to the same procedure as described in Example 9.

The test system of series [6] is shaved back skin. Also noted: species or system male rabbits. To be noted: rabbit, in vivo. The protocol:
The evaluation of skin reactions was done by the erythema and edema scores 24 and 72 hours after application.

Counter-ions that a name gives are not always drawn.

On to `COc1ccc2c(c1)c(CC(=O)O)c(C)n2C(=O)c1ccc(Cl)cc1` [Indomethacin calcium, Calcium salt of indomethacin], for which, in series [1], the “absorption of the active ingredient on addition of calcium thioglycolate” value is recorded as “dramatically decrease the absorption”. Also, in series [2], the Bioavailability stood at 70.3 ± 4.1% and the “AUC (0-36 hours)” value came out at 473.4 ± 16.5 µg·h/mL. Besides, in series [3], the “inhibitory effect on carrageenan-induced paw edema” value is “significantly higher inhibitory effect”. Besides, the “absorption through the skin compared with indomethacin” value in series [4] (three 24 h applications) was “readily and quickly absorbed through the skin compared with indomethacin”. Further, the “plasma levels after application of the gel ointment” value in series [4] (multiple dosing, vs indomethacin ointment) was “much higher plasma levels”. Moreover, in series [5], the Inhibition (usually the change of the read-out against control, counted positive when it falls) is given as 51.0 ± 7.6% and the Foot volume was determined as 2.38 ± 0.12 mL. Also, the “inhibitory effect on adjuvant arthritis” value in series [5] (compared with indomethacin ointment) is on record as “significant inhibitory effect, to the same extent as the indomethacin ointment”. In addition, in series [6], the “erythema produced by the ointment” value was “only slight erythema” and the “irritation produced by the ointment” value is listed as “nearly negligible”.

In the case of `O=C(O)COc1nn(Cc2ccccc2)c2ccccc12` [Bendazac calcium], in series [2], the AUC(0-t) (commonly exposure summed from dosing to a finite time, without extrapolation to infinity) at 36 h was determined as 460 ± 31.5 µg·h/mL.

In turn, `O=C(O)Cc1ccccc1Nc1c(Cl)cccc1Cl` [Diclofenac calcium] displayed an AUC(0-t) at 36 h in series [2] of 465 ± 32.4 µg·h/mL.

As to `O=C(O)c1ccccc1Nc1cccc(C(F)(F)F)c1` [Flufenamate calcium], in series [2], the exposure AUC(0-t) at 36 h was 463 ± 18.9 µg·h/mL.

As to `COc1ccc2c(c1)c(CC(=O)O)c(C)n2C(=O)c1ccc(Cl)cc1` [Indomethacin, indomethacin, reference compound], in series [2], the Bioavailability was 7.3 ± 1.4% and the “AUC (0-36 hours)” value is 50.4 ± 7.8 µg·h/mL. Moreover, in series [5], the Inhibition was 55.4 ± 10.5% and the Foot volume came out at 2.32 ± 0.16 mL. For the same molecule, in series [6], the “erythema produced by the ointment” value is “only slight erythema” and the “irritation produced by the ointment” value is “nearly negligible”.

In turn, `Cc1cccc(Nc2ccccc2C(=O)O)c1C` [Mefenamate calcium, Calcium mefenamate] came in with an AUC(0-t) at 36 h in series [2] of 470 ± 40.5 µg·h/mL.
